Where a SMILES comes first, the peptide text is derived from it. Bridges are numbered along the chain shown (N, C = ends).
Key:
[1] = test system: KV1.1 channel (hKV1.1); assay: Whole-cell patch clamp selectivity, KV1.1; assay type: cell-based, human; details: KV1.1, 10 µM, n = 5
Protocol: (§1) The cDNA of hKV1.1, hKV1.3, rKV1.4, hKV1.5, rKV2.1, hKV3.1–3.4, mKV4.1, rKV4.2, and rKV4.3 were subcloned in the eukaryotic expression vector pCDNA3.1 or pCMV-blank. Channel mutants were made by a site-directed mutation method. Briefly, a pair of oppositely directed primers with 15 bp overlap at their 5′ ends and the designed mutation site were used to amplify the parental channel plasmid, then the PCR mix was treated with DpnI to remove the template. 10 μL digestion mix was directly used to transform 100 μL DH5α chemical competent cells. The correct mutation made by this procedure was finally confirmed by DNA sequencing. […] 4–6 h after transfection, cells were seeded onto poly-lysine (PLL) coated coverslips, and 24–36 h later, transfected cells were ready for patch-clamp analysis. […]
(§2) Whole-cell patch clamp recording was performed in an electrophysiology platform equipped with MultiClamp 700B amplifier and Axon Digidata 1550 AD/DA convertor (Axon Instruments, Irvine, CA, United States). […] The whole cell conductance (G) at each depolarizing voltage (V) was determined using the equation: G = I/(V−Vrev), where I and Vrev represents the current amplitude and the reversal potential, respectively. In the present study, Vrev for K^+ current is determined to be −85.61 mV using the Nernst equation. […] Gating currents of KV4.1–4.3 channels were measured as previously reported ([Tilley et al., 2019]). […]

[2] = test system: KV4.3/274LV/AA mutant; assay: Whole-cell patch clamp, KV4.3/274LV/AA in CHO-K1 cells; assay type: cell-based, rat; details: KV4.3/274LV/AA at Va depolarizing voltage, n = 5–7
Protocol: as §1, §2

[3] = molecular target: T1, KV4.1 channel (mKV4.1) (Mus musculus, UniProt Q03719); assay: Whole-cell patch clamp, KV4.1 in CHO-K1 cells; assay type: cell-based
T1 construct: expressed in transfected cells; host or cells: CHO-K1 (transient, co-transfected with pEGFP-N1)
T1 sequence (Q03719 1-651): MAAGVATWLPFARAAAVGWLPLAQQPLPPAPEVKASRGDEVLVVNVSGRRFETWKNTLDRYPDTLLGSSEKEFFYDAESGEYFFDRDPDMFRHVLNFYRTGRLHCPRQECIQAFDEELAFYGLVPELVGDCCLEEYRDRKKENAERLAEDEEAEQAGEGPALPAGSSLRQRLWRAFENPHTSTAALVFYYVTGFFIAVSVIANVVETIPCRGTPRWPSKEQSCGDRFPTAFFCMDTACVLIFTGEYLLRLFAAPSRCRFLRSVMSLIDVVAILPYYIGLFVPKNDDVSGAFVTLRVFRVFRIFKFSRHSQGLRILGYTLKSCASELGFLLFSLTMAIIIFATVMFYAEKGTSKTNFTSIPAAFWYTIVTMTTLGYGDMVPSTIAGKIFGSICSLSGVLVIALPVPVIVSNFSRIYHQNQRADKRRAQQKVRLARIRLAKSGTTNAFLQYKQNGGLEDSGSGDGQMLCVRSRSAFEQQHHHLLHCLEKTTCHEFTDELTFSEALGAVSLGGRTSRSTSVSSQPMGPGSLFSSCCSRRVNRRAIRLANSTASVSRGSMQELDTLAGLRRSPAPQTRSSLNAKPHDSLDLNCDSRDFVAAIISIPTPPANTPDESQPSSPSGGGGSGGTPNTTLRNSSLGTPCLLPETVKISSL
Protocol: (§3) The cDNA of hKV1.1, hKV1.3, rKV1.4, hKV1.5, rKV2.1, hKV3.1–3.4, mKV4.1, rKV4.2, and rKV4.3 were subcloned in the eukaryotic expression vector pCDNA3.1 or pCMV-blank. Channel mutants were made by a site-directed mutation method. Briefly, a pair of oppositely directed primers with 15 bp overlap at their 5′ ends and the designed mutation site were used to amplify the parental channel plasmid, then the PCR mix was treated with DpnI to remove the template. 10 μL digestion mix was directly used to transform 100 μL DH5α chemical competent cells. The correct mutation made by this procedure was finally confirmed by DNA sequencing. CHO-K1 cells (ATCC® CCL-61™) were grown in DMEM-F12 mixed medium (1:1) supplemented with 10% FBS and maintained in standard conditions (saturated humidity, 37°C, 5% CO2). Channel plasmid was co-transfected with pEGFP-N1 (encodes the green fluoresence protein) into CHO-K1 cells using lipofectamine 2000 following the manufacturer’s instructions. 4–6 h after transfection, cells were seeded onto poly-lysine (PLL) coated coverslips, and 24–36 h later, transfected cells were ready for patch-clamp analysis. It should be note that KV4.2 and its mutants were also co-expressed with hKChIP1 to promote their functional expressions.
(§4) Whole-cell patch clamp recording was performed in an electrophysiology platform equipped with MultiClamp 700B amplifier and Axon Digidata 1550 AD/DA convertor (Axon Instruments, Irvine, CA, United States). Data were acquired using the pClamp software (Axon Instruments, Irvine, CA, United States). All experiments were performed at room temperature. The bath solution contains (in mM): 140 NaCl, 5 KCl, 1 MgCl2, 2 CaCl2, 10 glucose, and 10 HEPES (pH = 7.3). The pipette solution contains (in mM): 140 KCl, 2.5 MgCl2, 11 EGTA, and 10 HEPES (pH = 7.3). Series resistance was kept below 10 MΩ and compensated to 80%. The concentration–response curves were fitted by a Hill logistic equation to estimate the potency (IC50) of the toxin. The whole cell conductance (G) at each depolarizing voltage (V) was determined using the equation: G = I/(V−Vrev), where I and Vrev represents the current amplitude and the reversal potential, respectively. In the present study, Vrev for K^+ current is determined to be −85.61 mV using the Nernst equation. G-V curve was obtained by plotting the normalized G as a function of V and fitted by the Boltzmann equation: y = 1/{1 + exp [(Va−V)/K]}, in which Va, V, and K represents half-maximum activation voltage, test voltage and slope factor, respectively. The steady-state fast inactivation of KV4 channels was measured using a classical two-pulses protocol: cell was held at −120 mV, and a train of conditional voltages (−120–40 mV, in 10 mV increment, 1,000 ms) were applied to induce channel inactivation, followed by a +60 mV test pulse (300 ms) to assess the proportion of non-inactivated channels; the sweep interval was set to 10 s. Currents at the test pulse (I) were normalized to the maximum value (Imax) and plotted as a function of the conditional voltage (V), the curve was fitted by the Boltzmann equation: I/Imax = A + (1−A)/{1 + exp [(V−Vh)/K]}, where Vh is the half-maximum inactivation voltage, A represents the minimum channel availability, and K is the slope factor. Gating currents of KV4.1–4.3 channels were measured as previously reported ([Tilley et al., 2019]). Briefly, the ionic pore currents were abolished by replacing K^+ with NMDG^+ in the pipette solution, and 10 µM Cs^+ was present in the bath solution to occupy the selectivity filter of KV channels to prevent decay of the gating currents during recording.
(§5) Data were presented as MEAN ± SEM, n represents the number of separate experimental cells. Data were analyzed using the software Clampfit 10.5 (Axon Instruments, Irvine, CA, United States), Graphpad Prism 5.01 (GraphPad Software, La Jolla, CA, United States) and Excel 2010 (Microsoft Corporation, Redmond, WA, United States). […]

[4] = test system: KV4.3-TN/PK (KV4.3/277PK, T277P/N278K double mutant); assay: Whole-cell patch clamp, KV4.3-TN/PK (KV4.3/277PK) in CHO-K1 cells; assay type: cell-based, rat
Protocol: as §3, §4, §5

[5] = test system: KV3.4 channel (hKV3.4); assay: Whole-cell patch clamp selectivity, KV3.4; assay type: cell-based, human; details: KV3.4, 10 µM, n = 5
Protocol: as §1, §2

[6] = 10 μM κ-LhTx-1, KV4.1, two-pulse protocol, mean ± SEM, n = 5
[7] = 10 μM κ-LhTx-1, KV4.3-TN/PK, G-V, mean ± SEM, n = 5
[8] = 10 μM κ-LhTx-1, KV4.3-TN/PK, two-pulse protocol, mean ± SEM, n = 5

Structure (SMILES): CC[C@H](C)[C@@H]1NC(=O)[C@H](CCC(N)=O)NC(=O)[C@@H]2CSSC[C@@H]3NC(=O)[C@H](CC(C)C)NC(=O)[C@H](CC(N)=O)NC(=O)[C@H](CCSC)NC(=O)[C@H](Cc4c[nH]c5ccccc45)NC(=O)[C@H](CO)NC(=O)[C@H](C)NC(=O)[C@@H](NC(=O)[C@H](CCC(=O)O)NC(=O)[C@H](CCC(N)=O)NC(=O)[C@H](C)NC(=O)[C@H](CC(=O)O)NC(=O)[C@@H](N)CCC(=O)O)CSSC[C@H](NC(=O)[C@H](CSSC[C@@H](C(=O)N[C@@H](CCCCN)C(=O)N[C@@H](Cc4ccc(O)cc4)C(=O)N[C@@H](CCCCN)C(=O)N[C@@H](CC(C)C)C(N)=O)NC(=O)[C@H](Cc4c[nH]c5ccccc45)NC1=O)NC(=O)[C@H](CCCCN)NC(=O)[C@H](CCCCN)NC(=O)[C@H](CCC(=O)O)NC(=O)CNC3=O)C(=O)N[C@@H](CCC(=O)O)C(=O)NCC(=O)N[C@@H](Cc1ccc(O)cc1)C(=O)N[C@@H](C(C)C)C(=O)N2 [κ-LhTx-1] (H-EDAQECASWMNLCGEKKCCEGYVCQIWCKYKL-NH2; disulfide 6-19, 13-24, 18-28 (inferred); N-terminus and C-terminus assumed)
- effect on currents [1]: did not remarkably affect the currents
- effect of mutation on toxin inhibition [2]: profoundly weakened the effect
- Va (steady-state activation) ([3]; 10 μM κ-LhTx-1, KV4.1, Boltzmann fit of G-V curve, mean ± SEM, n = 5): 95.20 ± 1.68 mV
- k, slope factor (steady-state activation) ([3]; 10 μM κ-LhTx-1, KV4.1, G-V, mean ± SEM, n = 5): 16.14 ± 1.78 mV
- Vh (steady-state inactivation) [3, 6]: -32.48 ± 3.44 mV
- k, slope factor (steady-state inactivation) [3, 6]: 22.88 ± 0.19 mV
- reversibility of inhibition ([3]; KV4.1): in a reversible manner
- voltage-dependence of inhibition ([3]; KV4.1, 10 µM, inhibition ratio at each depolarizing voltage, n = 5–8): affected by voltage to a much less extent
- I-V: current inhibition below +60 mV ([3]; KV4.1, 10 µM, n = 5–8): fully inhibited the currents at voltages below +60 mV
- I-V: reopening of toxin-bound channels ([3]; KV4.1, 10 µM, strong depolarization, n = 5–8): only depolarizations stronger than +70 mV could partially reopen the toxin-bound channels
- maximum inhibition ([3]; KV4.1, saturating dose 10 μM, +30 mV): fully inhibit
- current inhibition at Va ([3]; KV4.1 at Va depolarizing voltage): almost fully inhibited
- ∆Va (steady-state activation) ([3]; Va shift by 10 μM κ-LhTx-1 vs control, KV4.1, mean ± SEM): 98.28 ± 2.66 mV
- ∆Vh (steady-state inactivation) ([3]; Vh shift by 10 μM κ-LhTx-1 vs control, KV4.1, mean ± SEM): 29.27 ± 2.05 mV
- Va (steady-state activation) [4, 7]: 81.96 ± 2.27 mV
- k, slope factor (steady-state activation) [4, 7]: 15.09 ± 1.14 mV
- Vh (steady-state inactivation) [4, 8]: -25.43 ± 2.92 mV
- k, slope factor (steady-state inactivation) [4, 8]: 15.31 ± 2.02 mV
- ∆Va and inhi%(min) vs KV4.1 ([4]; KV4.3/277PK, 10 μM): not significantly different from those in KV4.1
- ∆Va (steady-state activation) ([4]; Va shift by 10 μM κ-LhTx-1 vs control, KV4.3-TN/PK, mean ± SEM): 87.43 ± 2.99 mV
- ∆Vh (steady-state inactivation) ([4]; Vh shift by 10 μM κ-LhTx-1 vs control, KV4.3-TN/PK, mean ± SEM): 26.29 ± 3.52 mV
- effect on currents [5]: did not remarkably affect the currents

From publication PMC8222713, “Variation of Two S3b Residues in KV4.1–4.3 Channels Underlies Their Different Modulations by Spider Toxin κ-LhTx-1” (Frontiers in Pharmacology, 2021)
